Active and inactive are the calls of the source.

Experiment [1] concerns the target Aurora kinase B (Homo sapiens, UniProt Q96GD4).
The target of experiment [2] is Serine/threonine-protein kinase MRCK gamma (Homo sapiens, UniProt Q6DT37).
Experiment [3] addresses DnaJ homolog subfamily A member 1 (Homo sapiens, UniProt P31689).
For experiment [4], the target named is G protein-coupled receptor kinase 6 (Homo sapiens, UniProt P43250).
Experiment [5] addresses T1, Mitogen-activated protein kinase kinase kinase kinase 2 (Homo sapiens, UniProt Q12851).
T1 sequence (Q12851 whole entry): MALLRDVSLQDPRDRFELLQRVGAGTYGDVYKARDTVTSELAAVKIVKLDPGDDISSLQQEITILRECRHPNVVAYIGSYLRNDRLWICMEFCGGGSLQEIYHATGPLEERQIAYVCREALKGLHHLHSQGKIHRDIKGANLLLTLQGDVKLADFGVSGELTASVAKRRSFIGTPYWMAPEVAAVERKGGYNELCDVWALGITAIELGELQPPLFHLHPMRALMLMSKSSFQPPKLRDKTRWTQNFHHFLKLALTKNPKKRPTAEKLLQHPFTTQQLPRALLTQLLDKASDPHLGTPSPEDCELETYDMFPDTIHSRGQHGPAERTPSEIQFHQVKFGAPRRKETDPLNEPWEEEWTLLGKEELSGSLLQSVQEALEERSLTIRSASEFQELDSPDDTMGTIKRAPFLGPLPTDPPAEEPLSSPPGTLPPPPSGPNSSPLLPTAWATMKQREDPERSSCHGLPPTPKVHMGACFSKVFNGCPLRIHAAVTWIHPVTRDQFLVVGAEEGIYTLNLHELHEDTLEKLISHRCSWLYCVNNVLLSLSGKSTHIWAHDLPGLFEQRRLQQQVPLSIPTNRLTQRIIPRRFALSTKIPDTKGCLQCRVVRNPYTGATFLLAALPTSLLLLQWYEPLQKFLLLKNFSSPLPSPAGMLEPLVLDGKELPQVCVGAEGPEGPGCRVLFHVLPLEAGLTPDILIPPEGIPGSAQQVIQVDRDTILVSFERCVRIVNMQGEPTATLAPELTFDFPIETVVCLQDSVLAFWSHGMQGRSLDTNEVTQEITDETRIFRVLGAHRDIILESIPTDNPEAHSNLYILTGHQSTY

In experiment [6] the target is Mitogen-activated protein kinase 3 (Homo sapiens, UniProt P27361).
Mitogen-activated protein kinase 3, sequence (P27361 whole entry): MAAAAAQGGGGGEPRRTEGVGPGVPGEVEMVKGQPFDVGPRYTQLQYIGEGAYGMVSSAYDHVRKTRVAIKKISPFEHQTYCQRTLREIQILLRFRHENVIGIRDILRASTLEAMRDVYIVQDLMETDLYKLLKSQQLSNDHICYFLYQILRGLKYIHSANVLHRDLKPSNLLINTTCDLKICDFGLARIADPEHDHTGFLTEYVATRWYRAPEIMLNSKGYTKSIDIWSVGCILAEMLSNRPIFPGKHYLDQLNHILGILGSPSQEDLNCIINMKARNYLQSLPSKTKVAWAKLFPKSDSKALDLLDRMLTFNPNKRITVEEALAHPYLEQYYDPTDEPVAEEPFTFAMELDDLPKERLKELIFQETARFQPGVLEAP
Experiment [7] has as its target Myosin-14 (Homo sapiens, UniProt Q7Z406).
Experiment [8] addresses NADH dehydrogenase [ubiquinone] 1 alpha subcomplex subunit 13 (Homo sapiens, UniProt Q9P0J0).
Experiment [9] addresses T2, Serine/threonine-protein kinase NLK (Homo sapiens, UniProt Q9UBE8).
T2 sequence (Q9UBE8 whole entry): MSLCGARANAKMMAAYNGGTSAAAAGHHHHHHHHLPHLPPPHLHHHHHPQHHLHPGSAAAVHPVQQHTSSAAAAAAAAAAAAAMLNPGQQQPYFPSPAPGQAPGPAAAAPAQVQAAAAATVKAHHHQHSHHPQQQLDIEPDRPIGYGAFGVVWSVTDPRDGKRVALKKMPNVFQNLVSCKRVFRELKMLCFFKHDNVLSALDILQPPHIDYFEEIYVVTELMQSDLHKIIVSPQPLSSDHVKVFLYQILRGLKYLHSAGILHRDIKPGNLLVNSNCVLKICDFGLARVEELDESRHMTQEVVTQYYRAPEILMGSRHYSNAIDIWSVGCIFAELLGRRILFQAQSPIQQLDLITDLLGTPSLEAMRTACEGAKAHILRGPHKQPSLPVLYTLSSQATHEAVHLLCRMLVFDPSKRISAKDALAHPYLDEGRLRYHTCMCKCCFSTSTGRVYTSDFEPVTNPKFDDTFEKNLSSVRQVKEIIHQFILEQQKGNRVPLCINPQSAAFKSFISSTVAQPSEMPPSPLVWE

The target of experiment [10] is T3, Ribosyldihydronicotinamide dehydrogenase [quinone] (Homo sapiens, UniProt P16083).
T3 sequence (P16083 whole entry): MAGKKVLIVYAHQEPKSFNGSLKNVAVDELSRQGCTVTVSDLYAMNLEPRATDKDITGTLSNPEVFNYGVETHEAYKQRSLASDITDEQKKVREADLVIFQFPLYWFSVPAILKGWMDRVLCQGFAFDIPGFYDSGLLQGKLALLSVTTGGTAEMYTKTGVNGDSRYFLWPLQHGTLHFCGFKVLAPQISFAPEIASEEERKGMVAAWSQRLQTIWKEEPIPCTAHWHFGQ

Experiment [11] deals with Obg-like ATPase 1 (Homo sapiens, UniProt Q9NTK5).
Obg-like ATPase 1, sequence (Q9NTK5 whole entry, looked up): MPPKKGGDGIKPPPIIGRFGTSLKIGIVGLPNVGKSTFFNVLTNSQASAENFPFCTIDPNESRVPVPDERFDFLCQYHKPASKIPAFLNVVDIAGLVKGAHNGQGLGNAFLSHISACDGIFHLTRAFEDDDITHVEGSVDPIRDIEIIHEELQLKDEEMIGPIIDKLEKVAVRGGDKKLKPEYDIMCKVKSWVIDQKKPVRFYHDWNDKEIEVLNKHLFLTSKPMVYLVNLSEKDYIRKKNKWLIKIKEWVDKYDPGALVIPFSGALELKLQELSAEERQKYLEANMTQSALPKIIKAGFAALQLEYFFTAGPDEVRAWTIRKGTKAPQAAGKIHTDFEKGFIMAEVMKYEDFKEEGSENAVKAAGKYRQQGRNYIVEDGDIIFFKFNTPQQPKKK
Experiment [12] concerns the target Serine/threonine-protein kinase PAK 4 (Homo sapiens, UniProt O96013).
Experiment [13] addresses 26S proteasome regulatory subunit 6B (Homo sapiens, UniProt P43686).
For experiment [14], the target named is Protein-tyrosine kinase 2-beta (Homo sapiens, UniProt Q14289).
The target in experiment [15] is T4, Serine/threonine-protein kinase STK11 (Homo sapiens, UniProt Q15831).
T4 sequence (Q15831 whole entry): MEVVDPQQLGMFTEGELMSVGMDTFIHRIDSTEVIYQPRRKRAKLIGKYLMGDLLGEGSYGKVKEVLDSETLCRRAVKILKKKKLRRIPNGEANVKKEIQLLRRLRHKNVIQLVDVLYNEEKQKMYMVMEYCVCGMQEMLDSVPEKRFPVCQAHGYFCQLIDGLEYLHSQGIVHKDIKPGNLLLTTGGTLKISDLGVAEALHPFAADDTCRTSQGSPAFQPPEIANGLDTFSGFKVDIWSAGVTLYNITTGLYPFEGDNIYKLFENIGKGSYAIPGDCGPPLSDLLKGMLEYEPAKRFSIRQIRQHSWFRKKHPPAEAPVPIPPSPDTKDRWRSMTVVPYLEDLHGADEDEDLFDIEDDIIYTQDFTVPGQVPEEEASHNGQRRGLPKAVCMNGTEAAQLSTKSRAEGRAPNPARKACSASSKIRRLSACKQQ

Experiment [16] has as its target DNA topoisomerase 2-alpha (Homo sapiens, UniProt P11388).
Further: in the data inactive means no Kd found up to 30 µM.

Aurora kinase B, sequence (Q96GD4 whole entry): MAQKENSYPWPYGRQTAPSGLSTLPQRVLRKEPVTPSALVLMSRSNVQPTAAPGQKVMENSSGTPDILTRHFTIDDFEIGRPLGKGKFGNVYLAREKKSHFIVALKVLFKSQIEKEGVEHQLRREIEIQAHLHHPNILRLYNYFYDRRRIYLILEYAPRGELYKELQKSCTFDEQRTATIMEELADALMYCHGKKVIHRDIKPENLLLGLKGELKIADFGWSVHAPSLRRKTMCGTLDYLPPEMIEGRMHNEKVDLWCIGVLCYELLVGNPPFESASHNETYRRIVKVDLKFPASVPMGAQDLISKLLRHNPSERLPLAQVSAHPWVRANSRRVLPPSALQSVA
Myosin-14, sequence (Q7Z406 whole entry): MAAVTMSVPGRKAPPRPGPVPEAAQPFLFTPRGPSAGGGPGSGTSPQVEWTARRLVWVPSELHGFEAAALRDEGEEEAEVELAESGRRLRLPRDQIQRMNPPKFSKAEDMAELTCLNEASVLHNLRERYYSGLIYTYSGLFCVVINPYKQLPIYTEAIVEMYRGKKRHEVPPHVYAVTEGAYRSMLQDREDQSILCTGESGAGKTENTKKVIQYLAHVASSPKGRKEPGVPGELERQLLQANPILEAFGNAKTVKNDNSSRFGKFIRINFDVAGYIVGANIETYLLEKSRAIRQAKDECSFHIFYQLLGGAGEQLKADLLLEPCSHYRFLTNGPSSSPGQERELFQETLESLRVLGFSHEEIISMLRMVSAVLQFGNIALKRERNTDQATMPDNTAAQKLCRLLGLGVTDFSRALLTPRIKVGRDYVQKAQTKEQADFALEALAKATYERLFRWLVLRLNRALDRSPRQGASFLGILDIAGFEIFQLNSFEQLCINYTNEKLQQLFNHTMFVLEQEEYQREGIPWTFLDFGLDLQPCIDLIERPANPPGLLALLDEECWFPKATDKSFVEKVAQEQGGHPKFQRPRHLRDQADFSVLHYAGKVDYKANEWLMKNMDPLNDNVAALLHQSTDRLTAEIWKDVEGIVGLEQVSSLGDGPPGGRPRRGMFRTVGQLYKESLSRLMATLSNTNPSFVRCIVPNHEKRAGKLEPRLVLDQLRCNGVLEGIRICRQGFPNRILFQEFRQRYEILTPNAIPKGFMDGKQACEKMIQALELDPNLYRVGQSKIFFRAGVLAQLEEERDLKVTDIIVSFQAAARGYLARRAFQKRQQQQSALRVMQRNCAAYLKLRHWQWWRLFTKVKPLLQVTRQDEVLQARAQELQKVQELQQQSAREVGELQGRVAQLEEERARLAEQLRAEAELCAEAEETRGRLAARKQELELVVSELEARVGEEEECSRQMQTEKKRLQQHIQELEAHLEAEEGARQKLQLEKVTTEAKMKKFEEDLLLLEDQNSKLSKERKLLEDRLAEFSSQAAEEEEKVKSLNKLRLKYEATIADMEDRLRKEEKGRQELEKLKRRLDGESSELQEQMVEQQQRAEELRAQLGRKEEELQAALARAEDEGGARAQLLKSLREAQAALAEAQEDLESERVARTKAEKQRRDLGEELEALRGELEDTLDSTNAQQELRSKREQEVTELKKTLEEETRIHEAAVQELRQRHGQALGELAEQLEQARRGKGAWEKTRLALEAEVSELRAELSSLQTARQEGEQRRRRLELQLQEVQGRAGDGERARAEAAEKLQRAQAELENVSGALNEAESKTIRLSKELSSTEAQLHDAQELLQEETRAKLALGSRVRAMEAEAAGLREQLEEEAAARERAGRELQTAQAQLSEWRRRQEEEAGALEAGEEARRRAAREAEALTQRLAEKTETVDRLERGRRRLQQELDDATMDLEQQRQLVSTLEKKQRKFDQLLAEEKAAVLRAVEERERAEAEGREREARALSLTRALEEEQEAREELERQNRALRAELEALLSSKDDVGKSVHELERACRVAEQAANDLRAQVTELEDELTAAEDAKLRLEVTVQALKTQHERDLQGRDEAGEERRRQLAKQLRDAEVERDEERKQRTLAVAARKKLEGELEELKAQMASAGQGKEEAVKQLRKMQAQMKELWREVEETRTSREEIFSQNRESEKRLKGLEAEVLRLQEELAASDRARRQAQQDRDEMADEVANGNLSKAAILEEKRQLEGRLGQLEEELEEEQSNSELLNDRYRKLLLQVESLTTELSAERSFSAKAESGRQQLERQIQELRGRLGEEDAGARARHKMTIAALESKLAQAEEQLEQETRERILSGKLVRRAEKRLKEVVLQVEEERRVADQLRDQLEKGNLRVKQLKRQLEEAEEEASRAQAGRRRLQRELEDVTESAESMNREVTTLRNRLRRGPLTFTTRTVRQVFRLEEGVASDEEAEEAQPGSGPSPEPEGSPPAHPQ
Serine/threonine-protein kinase MRCK gamma, sequence (Q6DT37 whole entry): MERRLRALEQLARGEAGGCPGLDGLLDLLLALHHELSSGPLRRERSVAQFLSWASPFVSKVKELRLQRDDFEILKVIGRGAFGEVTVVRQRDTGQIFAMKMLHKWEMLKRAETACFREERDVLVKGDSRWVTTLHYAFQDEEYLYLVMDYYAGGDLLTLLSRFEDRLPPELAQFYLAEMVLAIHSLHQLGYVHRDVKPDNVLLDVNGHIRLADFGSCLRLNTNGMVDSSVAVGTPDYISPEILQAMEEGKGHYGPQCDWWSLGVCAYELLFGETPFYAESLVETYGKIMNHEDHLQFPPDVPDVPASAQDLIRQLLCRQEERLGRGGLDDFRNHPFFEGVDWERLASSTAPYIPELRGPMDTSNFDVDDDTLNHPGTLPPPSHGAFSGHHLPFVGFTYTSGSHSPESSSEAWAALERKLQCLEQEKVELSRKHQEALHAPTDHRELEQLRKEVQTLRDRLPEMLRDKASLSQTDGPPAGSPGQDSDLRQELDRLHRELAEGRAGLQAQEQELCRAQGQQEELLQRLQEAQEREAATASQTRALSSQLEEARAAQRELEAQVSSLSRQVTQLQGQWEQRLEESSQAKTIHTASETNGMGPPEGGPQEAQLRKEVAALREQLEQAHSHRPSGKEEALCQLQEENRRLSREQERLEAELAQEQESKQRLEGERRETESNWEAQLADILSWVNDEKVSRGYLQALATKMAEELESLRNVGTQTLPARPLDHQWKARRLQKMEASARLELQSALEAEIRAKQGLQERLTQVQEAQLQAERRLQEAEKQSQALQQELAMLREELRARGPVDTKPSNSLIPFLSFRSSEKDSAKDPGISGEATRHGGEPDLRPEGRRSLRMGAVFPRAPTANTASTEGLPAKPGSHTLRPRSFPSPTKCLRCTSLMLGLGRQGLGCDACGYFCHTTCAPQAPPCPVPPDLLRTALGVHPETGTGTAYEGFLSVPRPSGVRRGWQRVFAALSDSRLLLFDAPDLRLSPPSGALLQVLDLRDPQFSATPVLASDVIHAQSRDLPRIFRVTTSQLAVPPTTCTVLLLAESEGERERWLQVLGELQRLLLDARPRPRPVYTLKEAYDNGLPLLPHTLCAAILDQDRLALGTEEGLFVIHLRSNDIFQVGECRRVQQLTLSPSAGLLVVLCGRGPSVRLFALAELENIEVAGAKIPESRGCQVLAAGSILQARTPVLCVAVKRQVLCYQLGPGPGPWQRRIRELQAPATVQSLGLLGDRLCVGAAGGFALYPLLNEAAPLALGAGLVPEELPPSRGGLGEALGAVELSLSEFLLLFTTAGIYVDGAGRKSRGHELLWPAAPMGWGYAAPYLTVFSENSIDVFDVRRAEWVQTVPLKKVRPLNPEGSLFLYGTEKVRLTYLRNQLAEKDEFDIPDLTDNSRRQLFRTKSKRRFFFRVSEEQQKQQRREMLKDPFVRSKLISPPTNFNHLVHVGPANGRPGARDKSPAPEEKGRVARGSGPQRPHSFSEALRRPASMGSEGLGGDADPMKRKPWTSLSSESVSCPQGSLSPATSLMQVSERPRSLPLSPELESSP
26S proteasome regulatory subunit 6B, sequence (P43686 whole entry): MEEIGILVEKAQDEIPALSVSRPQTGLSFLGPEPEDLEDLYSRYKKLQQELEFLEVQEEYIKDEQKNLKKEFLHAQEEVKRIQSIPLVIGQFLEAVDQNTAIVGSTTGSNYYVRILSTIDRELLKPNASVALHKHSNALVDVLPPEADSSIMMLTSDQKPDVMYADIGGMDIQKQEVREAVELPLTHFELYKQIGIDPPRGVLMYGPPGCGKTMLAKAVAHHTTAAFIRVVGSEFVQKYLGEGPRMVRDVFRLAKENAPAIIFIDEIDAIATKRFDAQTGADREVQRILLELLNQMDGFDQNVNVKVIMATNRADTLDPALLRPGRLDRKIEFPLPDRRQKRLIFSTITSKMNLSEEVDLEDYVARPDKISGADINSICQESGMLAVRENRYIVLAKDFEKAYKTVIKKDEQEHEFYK

In the case of `COc1cc2ncnc(Oc3cccc(NC(=O)Nc4cc(C(C)(C)C(F)(F)F)on4)c3)c2cc1OC` [CEP-32496], the Kd in experiment [1] was > 30 µM (inactive); in experiment [2], > 30 µM (inactive); in [3], > 30 µM (inactive); in experiment [4], > 30 µM (inactive); in experiment [5], 2.82 µM (active); in [6], > 30 µM (inactive). Moreover, the Kd in experiment [7], in experiment [8], in experiment [9], in experiment [10], in [11] and in experiment [12] was > 30 µM (inactive) throughout. Moreover, the Kd in [13], in experiment [14], in experiment [15] and in experiment [16] was > 30 µM (inactive) throughout.
Consider `COCC(=O)NC/C=C/c1ccc2ncnc(Nc3ccc(Oc4ccc(C)nc4)c(C)c3)c2c1` [CP-724714], for which the Kd in experiment [1], in experiment [2], in [3], in experiment [4], in experiment [5] and in [6] was > 30 µM (inactive) in each case. The Kd in experiment [7], in [8], in experiment [9], in experiment [10], in experiment [11] and in [12] was > 30 µM (inactive) throughout. In addition, the Kd in [13], in experiment [14], in experiment [15] and in experiment [16] was > 30 µM (inactive) in each case.
`C#Cc1cccc(Nc2ncnc3cc(OC)c(OCCCCCCC(=O)NO)cc23)c1` [CUDC-101]: the Kd in [1], in experiment [2], in [3], in [4], in experiment [5] and in [6] was > 30 µM (inactive) in each case. Besides, the Kd in experiment [7], in [8], in experiment [9], in experiment [10], in experiment [11] and in experiment [12] was > 30 µM (inactive) throughout. Besides, the Kd in [13], in [14], in experiment [15] and in [16] was > 30 µM (inactive) throughout.
For `Cc1cccc(-c2nn3c(c2-c2ccnc4ccc(C(N)=O)cc24)CCC3)n1` [GALUNISERTIB], the Kd in experiment [1], in experiment [2], in experiment [3], in experiment [4], in experiment [5] and in experiment [6] was > 30 µM (inactive) each time. Moreover, the Kd in experiment [7], in experiment [8], in experiment [9], in experiment [10], in [11] and in experiment [12] was > 30 µM (inactive) throughout. Besides, the Kd in experiment [13], in experiment [14], in experiment [15] and in [16] was > 30 µM (inactive) throughout.
With `CNC(=O)c1cccc2cc(Oc3ccnc4cc(OCC5(N)CC5)c(OC)cc34)ccc12` [LUCITANIB], the Kd in experiment [1] was 22.9 µM (active); in [2], > 30 µM (inactive); in experiment [3], > 30 µM (inactive); in experiment [4] it was > 30 µM (inactive); in experiment [5] it was > 30 µM (inactive); in [6] it was > 30 µM (inactive). Moreover, the Kd in experiment [7], in [8], in experiment [9], in [10], in [11] and in [12] was > 30 µM (inactive) throughout. Besides, the Kd in experiment [13], in experiment [14], in experiment [15] and in [16] was > 30 µM (inactive) throughout.
For `NC1(c2ccc(-c3nc4ccn5c(=O)[nH]nc5c4cc3-c3ccccc3)cc2)CCC1` [MK-2206], the Kd in experiment [1], in experiment [2], in [3], in experiment [4], in experiment [5] and in experiment [6] was > 30 µM (inactive) throughout. Besides, the Kd in experiment [7], in experiment [8], in [9], in [10], in [11] and in [12] was > 30 µM (inactive) each time. Also, the Kd in experiment [13], in experiment [14], in experiment [15] and in experiment [16] was > 30 µM (inactive) each time.
`COc1ncc(-c2ccc3nccc(-c4ccnnc4)c3c2)cc1NS(=O)(=O)c1ccc(F)cc1F` [OMIPALISIB]: the Kd in experiment [1], in [2], in experiment [3], in experiment [4], in [5] and in [6] was > 30 µM (inactive) in each case. For the same molecule, the Kd in experiment [7], in experiment [8], in experiment [9], in experiment [10], in experiment [11] and in [12] was > 30 µM (inactive) in each case. Moreover, the Kd in experiment [13], in experiment [14], in [15] and in [16] was > 30 µM (inactive) throughout.

For orientation: Kd means a measure of binding affinity in units of concentration.

Source of the values: ChEMBL document CHEMBL3991601, “The target landscape of clinical kinase drugs” (Science, 2017).
